Data reported in US20250011368A1, “DLL3 TARGETING PEPTIDES AND CONSTRUCTS THEREOF” (MARIANA ONCOLOGY INC., priority 2023, published 2025).
Bridge positions count the residues as written; N and C are the ends. Square brackets hold non-standard residues; d marks the D form. Peptide text beside a SMILES is read from it. * marks the point of attachment. ξ: configuration not given here. DOTA = O=C(O)CN1CCN(CC(=O)O)CCN(CC(=O)*)CCN(CC(=O)O)CC1; Trp(5-F) = N[C@@H](Cc1c[nH]c2ccc(F)cc12)C(=O)O; Phe(2-CF3) = N[C@@H](Cc1ccccc1C(F)(F)F)C(=O)O; Trp(7-aza) = N[C@@H](Cc1c[nH]c2ncccc12)C(=O)O; Pro(trans-4-F) = O=C(O)[C@@H]1C[C@@H](F)CN1; Phe(4-F) = N[C@@H](Cc1ccc(F)cc1)C(=O)O; 1Nal = N[C@@H](Cc1cccc2ccccc12)C(=O)O; 2Nal = N[C@@H](Cc1ccc2ccccc2c1)C(=O)O; β3hF = N[C@H](CC(=O)O)Cc1ccccc1; Chg = N[C@H](C(=O)O)C1CCCCC1; Tle = CC(C)(C)[C@H](N)C(=O)O; αMeP = C[C@@]1(C(=O)O)CCCN1; Octanoyl = CCCCCCCC(=O)*; Aze = O=C(O)[C@@H]1CCN1; Dab = NCC[C@H](N)C(=O)O; ξK = NCCCCC(N)C(=O)O

biological target: T1, human DLL3 (Homo sapiens, UniProt Q9NYJ7); test: Affinity determination by Surface Plasmon Resonance (SPR); assay type: binding; conditions: 25° C., biotinylated human DLL3 immobilized on streptavidin sensor chip, 1:1 binding model; read-out: SPR KD
T1 sequence (Q9NYJ7 27-618): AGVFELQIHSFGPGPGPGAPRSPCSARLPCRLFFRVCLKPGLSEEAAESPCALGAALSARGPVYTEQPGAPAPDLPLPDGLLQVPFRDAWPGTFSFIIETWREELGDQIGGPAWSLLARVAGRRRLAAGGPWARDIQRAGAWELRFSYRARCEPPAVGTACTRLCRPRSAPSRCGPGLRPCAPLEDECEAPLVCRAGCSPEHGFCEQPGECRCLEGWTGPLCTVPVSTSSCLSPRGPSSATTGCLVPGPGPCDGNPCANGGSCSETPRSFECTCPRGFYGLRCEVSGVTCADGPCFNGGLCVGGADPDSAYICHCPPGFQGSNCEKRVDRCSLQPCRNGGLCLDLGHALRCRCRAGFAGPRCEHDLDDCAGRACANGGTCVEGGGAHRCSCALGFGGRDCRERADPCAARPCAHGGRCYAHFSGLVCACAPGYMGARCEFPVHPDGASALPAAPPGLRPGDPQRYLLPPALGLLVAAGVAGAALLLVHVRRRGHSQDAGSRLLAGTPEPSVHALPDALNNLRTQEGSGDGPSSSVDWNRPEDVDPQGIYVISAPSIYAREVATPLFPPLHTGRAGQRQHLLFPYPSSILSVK
Protocol: SPR studies were performed on the compounds disclosed herein using the following protocol.
Biotinylated target ligand human DLL3 was immobilized on a streptavidin sensor chip. A reference surface was set up for nonspecific binding and refractive index changes. For analysis of the kinetics of interactions, varying concentrations of samples were injected at a flow rate of 100 μL/minute using running buffer containing 20 mM phosphate buffer with 2.7 mM KCl, 137 mM NaCl, 0.05% Surfactant P20 and 2% DMSO. Sensorgram curves were fitted with 1:1 binding model, and affinity and kinetic parameters were obtained using Biacore Insight evaluation 4.0. software.

Q: Which Kd does the source give for `CCCCCCCC(=O)NCC[C@@H]1NC(=O)[C@H](Cc2c[nH]c3ccccc23)NC(=O)[C@H](CC(N)=O)NC(=O)[C@H](CC(N)=O)NC(=O)[C@@H](NC(=O)[C@@H](NC(=O)[C@@H](NC(=O)[C@H](Cc2c[nH]c3ccccc23)NC(C)=O)[C@@H](C)O)[C@@H](C)CC)CSSC[C@@H](C(=O)N[C@@H](Cc2c[nH]c3ccccc23)C(=O)N2CCC[C@H]2C(=O)N[C@H](CCCCNC(=O)CN2CCN(CC(=O)O)CCN(CC(=O)O)CCN(CC(=O)O)CC2)C(N)=O)NC(=O)[C@H](CC(=O)O)NC1=O` [compound 93, Ac-W-T-I-C(3)-N-N-W-(DAB-4-NHCOC7H15)-D-C(3)-W-P-[D-Lys(DOTA)]-NH2] (Ac-WTICNNW[Dab](Octanoyl)DCWP[dK](DOTA)-NH2; disulfide 4-10) here?
A: 10 to 100 nM

Q: For `CC[C@H](C)[C@H](NC(=O)[C@@H](NC(=O)[C@H](Cc1c[nH]c2ccc(F)cc12)NC(C)=O)[C@@H](C)O)C(=O)N[C@H]1CSSC[C@@H](C(=O)N[C@@H](Cc2c[nH]c3ccccc23)C(=O)N2CCC[C@H]2C(=O)N[C@H](CCCCNC(=O)CN2CCN(CC(=O)O)CCN(CC(=O)O)CCN(CC(=O)O)CC2)C(N)=O)NC(=O)[C@H](CC(=O)O)NC(=O)[C@H](Cc2c[nH]cn2)NC(=O)[C@H](Cc2c[nH]c3ccccc23)NC(=O)[C@H](CC(N)=O)NC(=O)[C@H](CC(N)=O)NC1=O` [compound 100, Ac-(5Fluoro-W)-T-I-C(3)-N-N-W-H-D-C(3)-W-P-[D-Lys(DOTA)]-NH2] (Ac-[Trp(5-F)]TICNNWHDCWP[dK](DOTA)-NH2; disulfide 4-10), which Kd is on record?
A: < 1 nM

Q: `CC[C@H](C)[C@H](NC(=O)[C@@H](NC(=O)[C@H](Cc1c[nH]c2ccccc12)NC(C)=O)[C@@H](C)O)C(=O)N[C@H]1CSSC[C@@H](C(=O)N[C@@H](Cc2c[nH]c3ccccc23)C(=O)N2CCC[C@@]2(C)C(=O)N[C@H](CCCCNC(=O)CN2CCN(CC(=O)O)CCN(CC(=O)O)CCN(CC(=O)O)CC2)C(N)=O)NC(=O)[C@H](CC(=O)O)NC(=O)[C@H](Cc2c[nH]cn2)NC(=O)[C@H](Cc2c[nH]c3ccccc23)NC(=O)[C@H](CC(N)=O)NC(=O)[C@H](CC(N)=O)NC1=O` [compound 105, Ac-W-T-I-C(3)-N-N-W-H-D-C(3)-W-(aMe-P)-[D-Lys(DOTA)]-NH2] (Ac-WTICNNWHDCW[αMeP][dK](DOTA)-NH2; disulfide 4-10) was tested. Which Kd did it give?
A: 1 to 10 nM

Q: Which Kd does the source give for `CC(=O)N[C@@H](Cc1c[nH]c2ccccc12)C(=O)N[C@H](C(=O)N[C@H](C(=O)N[C@H]1CSSC[C@@H](C(=O)N[C@@H](Cc2c[nH]c3ccccc23)C(=O)N2CCC[C@H]2C(=O)N[C@H](CCCCNC(=O)CN2CCN(CC(=O)O)CCN(CC(=O)O)CCN(CC(=O)O)CC2)C(N)=O)NC(=O)[C@H](CC(=O)O)NC(=O)[C@H](Cc2c[nH]cn2)NC(=O)[C@H](Cc2c[nH]c3ccccc23)NC(=O)[C@H](CC(N)=O)NC(=O)[C@H](CC(N)=O)NC1=O)C1CCCCC1)[C@@H](C)O` [compound 106, Ac-W-T-(Chg)-C(3)-N-N-W-H-D-C(3)-W-P-[D-Lys(DOTA)]-NH2] (Ac-WT[Chg]CNNWHDCWP[dK](DOTA)-NH2; disulfide 4-10) here?
A: < 1 nM

Q: For `CC(=O)N[C@@H](Cc1c[nH]c2ccccc12)C(=O)N[C@H](C(=O)N[C@@H](Cc1cccc2ccccc12)C(=O)N[C@H]1CSSC[C@@H](C(=O)N[C@@H](Cc2c[nH]c3ccccc23)C(=O)N2CCC[C@H]2C(=O)N[C@H](CCCCNC(=O)CN2CCN(CC(=O)O)CCN(CC(=O)O)CCN(CC(=O)O)CC2)C(N)=O)NC(=O)[C@H](CC(=O)O)NC(=O)[C@H](Cc2c[nH]cn2)NC(=O)[C@H](Cc2c[nH]c3ccccc23)NC(=O)[C@H](CC(N)=O)NC(=O)[C@H](CC(N)=O)NC1=O)[C@@H](C)O` [compound 107, Ac-W-T-(1Nal)-C(3)-N-N-W-H-D-C(3)-W-P-[D-Lys(DOTA)]-NH2] (Ac-WT[1Nal]CNNWHDCWP[dK](DOTA)-NH2; disulfide 4-10), which Kd is on record?
A: 10 to 100 nM

Q: With `CC[C@H](C)[C@H](NC(=O)[C@@H](NC(=O)[C@H](Cc1c[nH]c2ccccc12)NC(C)=O)[C@@H](C)O)C(=O)N[C@H]1CSSC[C@@H](C(=O)N[C@@H](Cc2c[nH]c3ccccc23)C(=O)N2C[C@H](F)C[C@H]2C(=O)N[C@H](CCCCNC(=O)CN2CCN(CC(=O)O)CCN(CC(=O)O)CCN(CC(=O)O)CC2)C(N)=O)NC(=O)[C@H](CC(=O)O)NC(=O)[C@H](Cc2c[nH]cn2)NC(=O)[C@H](Cc2c[nH]c3ccccc23)NC(=O)[C@H](CC(N)=O)NC(=O)[C@H](CC(N)=O)NC1=O` [compound 113, Ac-W-T-I-C(3)-N-N-W-H-D-C(3)-W-(trans4Fluoro-P)-[D-Lys(DOTA)]-NH2] (Ac-WTICNNWHDCW[Pro(trans-4-F)][dK](DOTA)-NH2; disulfide 4-10) as the compound, how does the Kd read?
A: < 1 nM

Q: How did the Kd turn out when `CC(=O)N[C@@H](Cc1c[nH]c2ccccc12)C(=O)N[C@H](C(=O)N[C@@H](Cc1ccccc1C(F)(F)F)C(=O)N[C@H]1CSSC[C@@H](C(=O)N[C@@H](Cc2c[nH]c3ccccc23)C(=O)N2CCC[C@H]2C(=O)N[C@H](CCCCNC(=O)CN2CCN(CC(=O)O)CCN(CC(=O)O)CCN(CC(=O)O)CC2)C(N)=O)NC(=O)[C@H](CC(=O)O)NC(=O)[C@H](Cc2c[nH]cn2)NC(=O)[C@H](Cc2c[nH]c3ccccc23)NC(=O)[C@H](CC(N)=O)NC(=O)[C@H](CC(N)=O)NC1=O)[C@@H](C)O` [compound 114, Ac-W-T-(2CF3-F)-C(3)-N-N-W-H-D-C(3)-W-P-[D-Lys(DOTA)]-NH2] (Ac-WT[Phe(2-CF3)]CNNWHDCWP[dK](DOTA)-NH2; disulfide 4-10) was run?
A: < 1 nM

Q: How did the Kd turn out when `CC(=O)N[C@@H](Cc1c[nH]c2ccccc12)C(=O)N[C@H](C(=O)N[C@H](CC(=O)N[C@H]1CSSC[C@@H](C(=O)N[C@@H](Cc2c[nH]c3ccccc23)C(=O)N2CCC[C@H]2C(=O)N[C@H](CCCCNC(=O)CN2CCN(CC(=O)O)CCN(CC(=O)O)CCN(CC(=O)O)CC2)C(N)=O)NC(=O)[C@H](CC(=O)O)NC(=O)[C@H](Cc2c[nH]cn2)NC(=O)[C@H](Cc2c[nH]c3ccccc23)NC(=O)[C@H](CC(N)=O)NC(=O)[C@H](CC(N)=O)NC1=O)Cc1ccccc1)[C@@H](C)O` [compound 115, Ac-W-T-(2PhEt-A)-C(3)-N-N-W-H-D-C(3)-W-P-[D-Lys(DOTA)]-NH2] (Ac-WT[β3hF]CNNWHDCWP[dK](DOTA)-NH2; disulfide 4-10) was run?
A: 1 to 10 nM

Q: How did the Kd turn out when `CC(=O)N[C@@H](Cc1c[nH]c2ccccc12)C(=O)N[C@H](C(=O)N[C@@H](Cc1ccc2ccccc2c1)C(=O)N[C@H]1CSSC[C@@H](C(=O)N[C@@H](Cc2c[nH]c3ccccc23)C(=O)N2CCC[C@H]2C(=O)N[C@H](CCCCNC(=O)CN2CCN(CC(=O)O)CCN(CC(=O)O)CCN(CC(=O)O)CC2)C(N)=O)NC(=O)[C@H](CC(=O)O)NC(=O)[C@H](Cc2c[nH]cn2)NC(=O)[C@H](Cc2c[nH]c3ccccc23)NC(=O)[C@H](CC(N)=O)NC(=O)[C@H](CC(N)=O)NC1=O)[C@@H](C)O` [compound 116, Ac-W-T-(2Nal)-C(3)-N-N-W-H-D-C(3)-W-P-[D-Lys(DOTA)]-NH2] (Ac-WT[2Nal]CNNWHDCWP[dK](DOTA)-NH2; disulfide 4-10) was run?
A: 10 to 100 nM

Q: With `CC(=O)N[C@@H](Cc1c[nH]c2ccc(F)cc12)C(=O)N[C@H](C(=O)N[C@H](C(=O)N[C@H]1CSSC[C@@H](C(=O)N[C@@H](Cc2c[nH]c3ncccc23)C(=O)N2CC[C@H]2C(=O)NC(CCCCNC(=O)CN2CCN(CC(=O)O)CCN(CC(=O)O)CCN(CC(=O)O)CC2)C(N)=O)NC(=O)[C@H](CC(=O)O)NC(=O)[C@H](Cc2cnc[nH]2)NC(=O)[C@H](Cc2ccc(F)cc2)NC(=O)[C@H](CC(N)=O)NC(=O)[C@H](CC(N)=O)NC1=O)C(C)(C)C)[C@@H](C)O` (stereo partly drawn) [compound 121, Ac-(5Fluoro-W)-T-(Tbg)-C(3)-N-N-(4Fluoro-F)-H-D-C(3)-(7Aza-W)-(Aze)-[D-Lys(DOTA)]-NH2] (Ac-[Trp(5-F)]T[Tle]CNN[Phe(4-F)]HDC[Trp(7-aza)][Aze][ξK](DOTA)-NH2; disulfide 4-10) as the compound, how does the Kd read?
A: 10 to 100 nM
